Results taken from patent US20050032766A1, “Use of estrogenic compounds as anti-fungal agents” (priority 2003, published 2005).

Tests used:
Assay type in all cases: cell-based
C. albicans [1] = experiment: Growth inhibition of C. albicans strains by 2ME2, colony counts at 5 and 12 hours (Example 1); conditions: for Number of Treated Colonies at 5 hrs / Number of Treated Colonies at 12 hrs / Percentage of Inhibition at 12 hrs: 3 μM 2ME2
Description: (§1) The ability of 3 μM 2ME2 to inhibit the growth of ten different strains of C. albicans was investigated. Nine of these strains were clinically isolated and maintained by interval of subculture with Sabouraouds dextrose agar and storage at 4° C.; the other strain was purchased from ATCC. Yeast cells were cultured with nitrogen broth devoid of mammalian steroid hormones in the presence and absence of 2ME2. At 5 and 12 hours after the addition of 2ME2, a small volume of control and treated cultures was drawn and plated on Sabouraouds dextrose agar plates. The plates were placed at 37° C. and the colonies counted 24 hours later. Table I illustrates that micromolar concentrations 2ME2 are able to suppress the growth of 9/10 strains of C. albicans tested here.

C. albicans [2] = experiment: Repeat of the growth inhibition test, colony counts after 5 hours of culture (Example 2)
Description: as §1
The experiment described in Example 1 was repeated with 4 of the above strains and 3 newly isolated C. albicans trains. The following counts were taken from yeast cultures grown for 5 hours in the nitrogen base media in the presence and absence of micromolar concentrations 2ME2.

C. albicans [3] = experiment: C. albicans colony counts with 17β-estradiol in presence and absence of 2ME2 (Example 3); conditions: 5 hours; for Number of Colonies treated with estradiol and 2ME2: 1 μM 2ME2 with 1 nM 17β-estradiol; for Percentage of Inhibition: 1 μM 2ME2 with 1 nM 17β-estradiol vs estradiol alone; for Number of Colonies treated with estradiol: 1 nM 17β-estradiol alone
Description: as §1
In a separate experiment, 1 nM 17β-estradiol was added to the cultures of C. albicans cells in the presence and absence of 1 μM 2ME2 and the number of colonies of yeast cells cultured for 5 hours with the above steroids were counted as previously described.

[4] = strain 2, micromolar concentrations 2ME2
[5] = strain 5, micromolar concentrations 2ME2
[6] = strain 8, micromolar concentrations 2ME2
[7] = strain 10, micromolar concentrations 2ME2
[8] = strain 11, micromolar concentrations 2ME2
[9] = strain 12, micromolar concentrations 2ME2
[10] = strain ATCC, micromolar concentrations 2ME2

Question: For `COc1cc2c(cc1O)CC[C@@H]1[C@@H]2CC[C@]2(C)[C@@H](O)CC[C@@H]12` [2ME2, 2-Methoxyestradiol], which “strains of C. albicans whose growth is suppressed” value (C. albicans [1]; micromolar concentrations 2ME2, ten strains tested) is on record?
Answer: The value was 9/10.

Question: What about the “Number of Treated Colonies at 5 hrs” value (C. albicans [1]; strain 1) of the same compound?
Answer: The value was 16.

Question: What about the “Number of Treated Colonies at 12 hrs” value (C. albicans [1]; strain 1) of the same compound?
Answer: Its value is 50.

Question: And the “Percentage of Inhibition at 12 hrs” value (C. albicans [1]; strain 1)?
Answer: The value was 57%.

Question: What about the “Number of Treated Colonies at 5 hrs” value (C. albicans [1]; strain 2) of the same compound?
Answer: Its value is 51.

Question: And the “Number of Treated Colonies at 12 hrs” value (C. albicans [1]; strain 2)?
Answer: Its value is >400.

Question: And the “Number of Treated Colonies at 5 hrs” value (C. albicans [1]; strain 3)?
Answer: Its value is 14.

Question: What about the “Number of Treated Colonies at 12 hrs” value (C. albicans [1]; strain 3) of the same compound?
Answer: Its value is 86.

Question: And the “Percentage of Inhibition at 12 hrs” value (C. albicans [1]; strain 3)?
Answer: Its value is >78%.

Question: And the “Number of Treated Colonies at 5 hrs” value (C. albicans [1]; strain 4)?
Answer: The value was 17.

Question: What about the “Number of Treated Colonies at 12 hrs” value (C. albicans [1]; strain 4) of the same compound?
Answer: Its value is 113.

Question: What about the “Percentage of Inhibition at 12 hrs” value (C. albicans [1]; strain 4) of the same compound?
Answer: The value was >72%.

Question: What about the “Number of Treated Colonies at 5 hrs” value (C. albicans [1]; strain 5) of the same compound?
Answer: Its value is 14.

Question: What about the “Number of Treated Colonies at 12 hrs” value (C. albicans [1]; strain 5) of the same compound?
Answer: Its value is 85.

Question: And the “Percentage of Inhibition at 12 hrs” value (C. albicans [1]; strain 5)?
Answer: Its value is >79%.

Question: What about the “Number of Treated Colonies at 5 hrs” value (C. albicans [1]; strain 6) of the same compound?
Answer: Its value is 32.

Question: And the “Number of Treated Colonies at 12 hrs” value (C. albicans [1]; strain 6)?
Answer: The value was 131.

Question: And the “Percentage of Inhibition at 12 hrs” value (C. albicans [1]; strain 6)?
Answer: The value was >67%.

Question: And the “Number of Treated Colonies at 5 hrs” value (C. albicans [1]; strain 7)?
Answer: The value was 13.

Question: And the “Number of Treated Colonies at 12 hrs” value (C. albicans [1]; strain 7)?
Answer: The value was 148.

Question: And the “Percentage of Inhibition at 12 hrs” value (C. albicans [1]; strain 7)?
Answer: Its value is >63%.

Question: What about the “Number of Treated Colonies at 5 hrs” value (C. albicans [1]; strain 8) of the same compound?
Answer: The value was 14.

Question: And the “Number of Treated Colonies at 12 hrs” value (C. albicans [1]; strain 8)?
Answer: The value was 98.

Question: What about the “Percentage of Inhibition at 12 hrs” value (C. albicans [1]; strain 8) of the same compound?
Answer: Its value is >75%.

Question: And the “Number of Treated Colonies at 5 hrs” value (C. albicans [1]; strain 9)?
Answer: The value was 15.

Question: What about the “Number of Treated Colonies at 12 hrs” value (C. albicans [1]; strain 9) of the same compound?
Answer: The value was 90.

Question: And the “Percentage of Inhibition at 12 hrs” value (C. albicans [1]; strain 9)?
Answer: Its value is >77%.

Question: What about the “Number of Treated Colonies at 5 hrs” value (C. albicans [1]; strain ATCC) of the same compound?
Answer: Its value is 15.

Question: And the “Number of Treated Colonies at 12 hrs” value (C. albicans [1]; strain ATCC)?
Answer: The value was 67.

Question: What about the “Percentage of Inhibition at 12 hrs” value (C. albicans [1]; strain ATCC) of the same compound?
Answer: The value was 70%.

Question: What about the “Percentage of Inhibition” value (C. albicans [2]; [4]) of the same compound?
Answer: The value was 70%.

Question: And the “Treated Colonies” value (C. albicans [2]; [4])?
Answer: Its value is 26 ± 7.

Question: And the “Percentage of Inhibition” value (C. albicans [2]; [5])?
Answer: Its value is 41%.

Question: And the “Treated Colonies” value (C. albicans [2]; [5])?
Answer: Its value is 58 ± 7.

Question: And the “Percentage of Inhibition” value (C. albicans [2]; [6])?
Answer: The value was 50%.

Question: And the “Treated Colonies” value (C. albicans [2]; [6])?
Answer: Its value is 59 ± 7.

Question: And the “Percentage of Inhibition” value (C. albicans [2]; [7])?
Answer: Its value is 0%.

Question: And the “Treated Colonies” value (C. albicans [2]; [7])?
Answer: Its value is 51 ± 19.

Question: And the “Percentage of Inhibition” value (C. albicans [2]; [8])?
Answer: The value was 14%.

Question: And the “Treated Colonies” value (C. albicans [2]; [8])?
Answer: Its value is 74 ± 16.

Question: And the “Percentage of Inhibition” value (C. albicans [2]; [9])?
Answer: The value was 50%.

Question: What about the “Treated Colonies” value (C. albicans [2]; [9]) of the same compound?
Answer: The value was 77 ± 12.

Question: And the “Percentage of Inhibition” value (C. albicans [2]; [10])?
Answer: The value was 44%.

Question: What about the “Treated Colonies” value (C. albicans [2]; [10]) of the same compound?
Answer: Its value is 36 ± 6.

Question: What about the “Number of Colonies treated with estradiol and 2ME2” value (from here on “Number … with estradiol and 2ME2”) (C. albicans [3]; strain 2) of the same compound?
Answer: Its value is 64 ± 2.

Question: And the “Percentage of Inhibition” value (C. albicans [3]; strain 5)?
Answer: The value was 43%.

Question: And the “Number … with estradiol and 2ME2” value (C. albicans [3]; strain 5)?
Answer: Its value is 39 ± 4.

Question: And the “Percentage of Inhibition” value (C. albicans [3]; strain 8)?
Answer: The value was 48%.

Question: What about the “Number … with estradiol and 2ME2” value (C. albicans [3]; strain 8) of the same compound?
Answer: The value was 25 ± 3.

Question: And the “Percentage of Inhibition” value (C. albicans [3]; strain 10)?
Answer: The value was 56%.

Question: And the “Number … with estradiol and 2ME2” value (C. albicans [3]; strain 10)?
Answer: Its value is 23 ± 5.

Question: What about the “Percentage of Inhibition” value (C. albicans [3]; strain 11) of the same compound?
Answer: The value was 31%.

Question: What about the “Number … with estradiol and 2ME2” value (C. albicans [3]; strain 11) of the same compound?
Answer: The value was 55 ± 6.

Question: What about the “Percentage of Inhibition” value (C. albicans [3]; strain 12) of the same compound?
Answer: The value was 53%.

Question: And the “Number … with estradiol and 2ME2” value (C. albicans [3]; strain 12)?
Answer: Its value is 56 ± 1.

Question: What about the “Percentage of Inhibition” value (C. albicans [3]; strain ATCC) of the same compound?
Answer: The value was 55%.

Question: What about the “Number … with estradiol and 2ME2” value (C. albicans [3]; strain ATCC) of the same compound?
Answer: The value was 28 ± 12.

Question: Which “Number of Colonies treated with estradiol” value (C. albicans [3]; strain 2) does the source give for `C[C@]12CC[C@@H]3c4ccc(O)cc4CC[C@H]3[C@@H]1CC[C@@H]2O` [estradiol, 17β-estradiol, reference compound] here?
Answer: The value was 58 ± 5.

Question: And the “Number of Colonies treated with estradiol” value (C. albicans [3]; strain 5)?
Answer: Its value is 69 ± 13.

Question: What about the “Number of Colonies treated with estradiol” value (C. albicans [3]; strain 8) of the same compound?
Answer: The value was 48 ± 7.

Question: And the “Number of Colonies treated with estradiol” value (C. albicans [3]; strain 10)?
Answer: Its value is 52 ± 2.

Question: And the “Number of Colonies treated with estradiol” value (C. albicans [3]; strain 11)?
Answer: The value was 80 ± 1.

Question: And the “Number of Colonies treated with estradiol” value (C. albicans [3]; strain 12)?
Answer: The value was 120.

Question: What about the “Number of Colonies treated with estradiol” value (C. albicans [3]; strain ATCC) of the same compound?
Answer: Its value is 63 ± 8.
